Measurements published in patent EP1808169B1, “Polyhydroxylated aromatic compounds for the treatment of amyloidosis and alpha-synuclein fibril diseases” (priority 1999, dated 2001).

Legend:
Type in all cases: biochemical
[1] = tested on: Aβ 1-40 amyloid fibrils; assay: Thioflavin T fluorometry: dose-dependent disassembly/disruption of pre-formed Aβ 1-40 fibrils; details: 25 µM pre-fibrillized Aβ 1-40, overnight (~18 hours) at 37°C
From the text: A previously described method of measuring amyloid fibril formation utilizing Thioflavin T fluorometry (H Naiki et al., Lab. Invest. 65:104-110, 1991; H Levine III, Protein Sci. 2:404-410, 1993; H Levine III, Amyloid: Int. J. Exp. Clin. Invest. 2:1-6, 1995; H Naiki and K. Nakakuki, Lab. Invest. 74:374-383, 1996) was employed to identify potential therapeutic compounds capable of causing a disassembly/disruption of Alzheimer's Aβ 1-42 amyloid fibrils. Thioflavin T is known to bind to fibrillar amyloid proteins, and an increase in fluorescence correlates with an increase in amyloid fibril formation, whereas a decrease in fluorescence correlates with a decrease in amyloid fibrils due to disassembly and/or disruption. The Alzheimer's Aβ protein (1-42) when placed in solution, such as distilled water, tends to spontaneously form amyloid fibrils. Using this sensitive assay, any decreases or increases in fluorescence was previously shown to correlate with a decrease or increase in the amount of amyloid fibrils (see the documents cited above), allowing one to identify and quantitate the extent of potential inhibitors and/or enhancers of Alzheimer's Aβ 1-42 amyloid fibrils.
To assess the effects of each compound on potential disassembly/ disruption of preformed Aβ 1-42 fibrils, 50 µl of Aβ 1-42 with or without test compounds (described above) were added to 1.2 ml of 100µM Thioflavin T (Sigma) in 50mM NaH2PO4 (pH 6.0) for fluorometry readings. […] Fluorescence emission at 482 nm was measured on a Turner instrument-model 450 fluorometer at an excitation wavelength of 450 nm. For each determination, the fluorometer was calibrated by zeroing in the presence of the Thioflavin T reagent alone, and by setting the 50 ng/ml riboflavin (Sigma Chemical Co., St. Louis, MO) in the Thioflavin T reagent to 1800 fluorescence units. All fluorescence determinations were based on these references and any fluorescence given off by any of the compounds in the presence of the Thioflavin T reagent was always subtracted from all pertinent readings.
For all fibrillogenesis studies utilizing Thioflavin T fluorometry, as disclosed herein, comparisons of amyloid protein in the presence or absence of test compounds were based on paired Student's t tests with data shown as the mean of triplicate measurements ± standard deviation.
In this study, the potential dose-dependent effects of tannic acid and gallic acid on disassembly/ disruption of pre-formed Aβ 1-40 was assessed. In this experiment, 1 mg of Aβ 1-40 (Bachem Inc., Torrance, CA, USA; Lot # T-20824) was dissolved in 1.0 ml of double distilled water (1 mg/ml solution) and incubated for 4 days at 37°C to spontaneously induce fibril formation. 25 µM of pre-fibrillized Aβ 1-40 was then incubated overnight (~18 hours) at 37°C, in the absence or presence of increasing amounts (25µg/ml, 50µg/ml, 75µg/ml and 100µg/ml) of tannic acid or gallic acid (each in the presence of 150 mM Tris HCl, 10 mM NaCl, pH 7.0, with 0.02% sodium azide). The Aβ:compound weight ratios were therefore 4:1, 2:1, 4:3, and 1:1, respectively, 50 µl aliquots were then added to 1.2 ml of 100µM Thioflavin T (Sigma) in 50mM NaH2PO4 (pH 6.0) for fluorometry readings as described in Example 1 above.

[2] = target: T1, human amylin (Homo sapiens, UniProt P10997); assay: Thioflavin T fluorometry: disassembly/disruption of islet amyloid (amylin) fibrils; details: 25 µM human amylin, 100µg/ml compound, amylin:compound weight ratio 1:1, overnight (~18 hours) at 37°C, pH 7.0; read-out: Fluorescence inhibition, %
T1 construct: This amyloid protein involved consists of a 37 amino acid protein known as islet amyloid polypeptide or amylin; purchased Bachem
T1 sequence (P10997 34-70 limits assumed): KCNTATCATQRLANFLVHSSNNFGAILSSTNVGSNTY

[3] = target: T1, human amylin; assay: Congo red staining of amylin fibrils on gelatin-coated slides (polarized light); details: result in words; amylin + compound after overnight incubation, compared with amylin alone
Procedure: Following Thioflavin T fluorometry readings as described in Example 1, 5µl aliquots of amylin only, amylin + myricetin, amylin + exifone, and amylin + tannic acid were also taken, allowed to air dry overnight on gelatin-coated slides, and stained with Congo red as previously described (Castillo et al., Diabetes 47:612-620, 1998).

[4] = tested on: Aβ 1-40 amyloid fibrils; assay: Modified Congo red-Aβ spectrophotometric assay: disaggregation of pre-formed Aβ 1-40 fibrils (3 days incubation); details: Aβ:compound weight ratio 2:1; fibrillized Aβ 1-40 incubated with compound 3 days at 37°C in TBS pH 7.0; Δ absorbance at 540 nm; triplicate
Procedure: In this study, a Congo red-Aβ spectrophotometric assay (Klunk et al., Anal. Biochem. 266:66-76, 1999) was modified to determine the effectiveness of polyhydroxylated aromatic compounds on the disaggregation of pre-formed Aβ 1-40 amyloid fibrils. For this assay, 1 mg of Aβ 1-40 (Bachem) was incubated for 4 days in distilled water at 37°C to spontaneously produce amyloid fibrils. 25pM of fibrillized Aβ 1-40 was then incubated in triplicate with various test compounds for 3 days at 37°C in Tris-buffered saline (TBS)(100 mM Tris; 50 mM NaCl; pH 7.0, with 0.02% sodium azide), at an Aβ:compound weight ratio of 2:1. Following incubation, 50µl of 360 µM Congo red (Sigma) in distilled water was then added to 250 µl of each incubation mixture, giving a final Aβ:Congo red molar ratio of 1:3. After 10 minutes, the absorbance at 405 nm (reference wavelength to account for the absorbance of Congo red alone at 540 nm) and 540 nm (sample absorbance where "sample" refers to Aβ alone, test compound alone, or Aβ plus test compound, all in the presence of Congo red) was determined using a Biorad Model 550 BLISA Plate Reader (Biorad, Hercules, CA, USA). The absorbance at wavelength 405 nm was automatically subtracted by the ELISA plate reader from the absorbance at wavelength 540 nm (difference is referred to as Δ absorbance)(see Klunk et al. cited above). Therefore, the Δ absorbance reading at 540 nm was proportional to the amount of aggregated Aβ left in solution (Klunk et al.).
For all experiments involving test compounds, the Δ absorbance reading at 540 nm of the test compound alone (in the absence of Aβ), was always subtracted from the corresponding Δ absorbance reading at 540 nm of the test compound in the presence of Aβ. Using this modification of the method of Klunk et al., the use of a greater final concentration of Congo red, i.e. 60µM instead of 14µM, in the presence of fibrillar Aβ gave an overall absorbance at 540 nm that was always below 1.0 Absorbance Unit (AU), and well within the linear absorbance range.
The following polyhydroxylated aromatic containing compounds were tested using the above described Congo red-Aβ spectrophotometric assay to determine their effectiveness on disaggregation of pre-formed Aβ 1-40 amyloid fibrils: 1) gallic acid, 2) ethyl gallate, 3) quinic acid, 4) gallamide trihydrate, 5) ellagic acid, 6) propyl gallate, and 7) pyrogallol.

[5] = Aβ:compound w/w ratio 1:1 (100µg/ml compound)
[6] = Aβ:compound w/w ratio 2:1 (50µg/ml compound)
[7] = Aβ:compound w/w ratio 4:1 (25µg/ml compound)
[8] = Aβ:compound w/w ratio 4:3 (75µg/ml compound)

Structure (SMILES) | Fluorescence inhibition, %, at the Aβ 1.40:compound w/wratios given [1, 5] [%] | Fluorescence inhibition, %, at the Aβ 1.40:compound w/wratios given [1, 6] [%] | Fluorescence inhibition, %, at the Aβ 1.40:compound w/wratios given [1, 7] [%] | Fluorescence inhibition, %, at the Aβ 1.40:compound w/wratios given [1, 8] [%] | inhibition at 100 µg/mL [2] [%] | Congo red staining [3] | Decrease in absorbance, % [4] [%]
O=C(OC[C@H]1O[C@@H](OC(=O)c2cc(O)c(O)c(OC(=O)c3cc(O)c(O)c(O)c3)c2)[C@H](OC(=O)c2cc(O)c(O)c(OC(=O)c3cc(O)c(O)c(O)c3)c2)[C@@H](OC(=O)c2cc(O)c(O)c(OC(=O)c3cc(O)c(O)c(O)c3)c2)[C@@H]1OC(=O)c1cc(O)c(O)c(OC(=O)c2cc(O)c(O)c(O)c2)c1)c1cc(O)c(O)c(OC(=O)c2cc(O)c(O)c(O)c2)c1 [Tannic acid, tannic acid] | 53 ± 4.2 | 42 ± 2.8 | 31 ± 4.8 | 49 ± 3.7 | 83.8 ± 1.4 | marked decrease in Congo red staining | 
O=C(O)c1cc(O)c(O)c(O)c1 [Gallic acid, gallic acid] | 45 ± 4.1 | 22 ± 3.3 | 14 ± 8.2 | 34 ± 3.6 |  |  | 52 ± 0.4
